# Test results: US6444685B1, “N-(4-sulfonylaryl)Cyclylamine 2-hydroxyethylamines as beta-3 adrenergic receptor agonists” (Wyeth, priority 2000, dated 2002)
# How the values were obtained:
# [1] = biological target: T1, human β3 adrenergic receptor (Homo sapiens, UniProt P13945); experiment: cAMP accumulation (SPA) in CHO cells transfected with human β3 adrenergic receptor; type: cell-based; conditions: for EC50: CHO cells expressing human β3-AR, cAMP, 30 min incubation, 10^−9 M to 10^−5 M, read-out: beta-3 EC50; for beta-3 (IA) maximal response relative to isoproterenol: IA = % activity compound / % activity isoproterenol at 10^−5 M, CHO human β3 cells
# T1 construct: Full length β3 AR clones (402 amino acids) containing the last 6 amino acids of hβ3— AR are prepared; expressed in transfected cells; host or cells: CHO cells
# T1 sequence (P13945 whole entry): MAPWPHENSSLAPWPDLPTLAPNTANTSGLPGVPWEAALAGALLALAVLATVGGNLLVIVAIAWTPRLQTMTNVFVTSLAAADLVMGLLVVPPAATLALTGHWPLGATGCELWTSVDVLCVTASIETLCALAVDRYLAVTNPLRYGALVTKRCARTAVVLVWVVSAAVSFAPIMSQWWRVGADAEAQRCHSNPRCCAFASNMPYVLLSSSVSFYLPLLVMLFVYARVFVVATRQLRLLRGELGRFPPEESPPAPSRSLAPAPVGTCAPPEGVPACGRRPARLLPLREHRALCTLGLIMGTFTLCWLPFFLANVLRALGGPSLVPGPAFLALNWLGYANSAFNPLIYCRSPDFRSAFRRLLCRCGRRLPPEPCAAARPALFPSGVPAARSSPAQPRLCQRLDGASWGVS
# How it was run: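 CHO cells expressing human β3-AR (70–110 fmol/mg protein) treated with compound at 10^−9 to 10^−5 M in DMEM with 250 μM IBMX and 1 mM ascorbic acid, 30 min, 37 °C. cAMP measured by SPA; EC50 derived, and intrinsic activity expressed relative to the maximal response of 10^−5 M isoproterenol.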
# [2] = biological target: T2, human β1-adrenergic receptor (Homo sapiens, UniProt P08588); experiment: cAMP accumulation (SPA) in CHO cells transfected with human β1 adrenergic receptor; type: cell-based; conditions: for EC50: CHO cells transfected with human β1-AR, cAMP, 15 min incubation, 10^−8 to 10^−4 M, read-out: beta-1 EC50; for beta-1 (IA) maximal response relative to isoproterenol: IA = % activity compound / % activity isoproterenol at 10^−5 M, CHO human β1 cells
# T2 construct: expressed in transfected cells; host or cells: CHO cells
# T2 sequence (P08588 whole entry): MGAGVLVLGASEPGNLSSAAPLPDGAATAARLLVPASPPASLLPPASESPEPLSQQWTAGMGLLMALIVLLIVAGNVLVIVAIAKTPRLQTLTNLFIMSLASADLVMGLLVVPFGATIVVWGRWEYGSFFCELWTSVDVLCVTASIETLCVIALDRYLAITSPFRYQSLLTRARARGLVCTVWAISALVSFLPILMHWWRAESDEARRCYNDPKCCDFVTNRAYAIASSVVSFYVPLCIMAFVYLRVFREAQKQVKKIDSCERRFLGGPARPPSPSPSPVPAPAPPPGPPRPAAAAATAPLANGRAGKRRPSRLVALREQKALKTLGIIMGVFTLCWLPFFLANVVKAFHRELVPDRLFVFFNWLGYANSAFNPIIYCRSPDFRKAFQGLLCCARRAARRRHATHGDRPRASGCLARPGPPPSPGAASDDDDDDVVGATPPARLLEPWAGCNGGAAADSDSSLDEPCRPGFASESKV
# How it was run: (§1)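 CHO cell clones expressing 70–110 fmol/mg protein of receptor were pre-incubated 30 min at 37 °C, then treated 15 min at 37 °C with compound (10^−8 to 10^−4 M) in DMEM with 250 μM IBMX and 1 mM ascorbic acid. cAMP was read by SPA after acid stop. EC50 and IA were expressed relative to maximal 10^−5 M isoproterenol response.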
# [3] = biological target: T3, human β2-adrenergic receptor (Homo sapiens, UniProt P07550); experiment: cAMP accumulation (SPA) in CHO cells transfected with human β2 adrenergic receptor; type: cell-based; conditions: for EC50: CHO cells transfected with human β2-AR, cAMP, 15 min incubation, 10^−8 to 10^−4 M, read-out: beta-2 EC50; for beta-2 (IA) maximal response relative to isoproterenol: IA = % activity compound / % activity isoproterenol at 10^−5 M, CHO human β2 cells
# T3 construct: expressed in transfected cells; host or cells: CHO cells
# T3 sequence (P07550 whole entry): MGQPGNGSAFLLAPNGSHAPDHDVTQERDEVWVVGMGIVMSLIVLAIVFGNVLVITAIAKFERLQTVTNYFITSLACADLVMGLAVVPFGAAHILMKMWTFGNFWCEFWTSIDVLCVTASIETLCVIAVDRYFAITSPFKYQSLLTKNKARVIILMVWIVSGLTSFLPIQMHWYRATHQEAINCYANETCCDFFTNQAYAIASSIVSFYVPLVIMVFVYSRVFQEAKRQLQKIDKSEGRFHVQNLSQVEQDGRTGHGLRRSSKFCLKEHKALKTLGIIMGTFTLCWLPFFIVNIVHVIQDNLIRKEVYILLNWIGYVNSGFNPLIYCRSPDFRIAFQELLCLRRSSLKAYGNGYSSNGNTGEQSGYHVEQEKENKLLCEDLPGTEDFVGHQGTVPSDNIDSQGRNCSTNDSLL
# How it was run: as §1
Compound,EC50 [1] [µM],beta-3 (IA) maximal response relative to isoproterenol [1],EC50 [2] [µM],beta-1 (IA) maximal response relative to isoproterenol [2],melting point,EC50 [3] [µM],beta-2 (IA) maximal response relative to isoproterenol [3]
"COc1ccc(NS(=O)(=O)c2ccc(N3CCC(NCC(O)c4ccc(O)c(NS(C)(=O)=O)c4)CC3)cc2)cc1OC (centres unmarked) [Example 8, N-(3,4-Dimethoxy-phenyl)-4-{4-[2-hydroxy-2-(4-hydroxy-3-methanesulfonylamino-phenyl)-ethylamino]-piperidin-1-yl}-benzenesulfonamide]",0.016,(0.91),3.6,(0.41),205 to 218 °C,0.61,(0.28)
"COc1ccc(NS(=O)(=O)c2ccc(N3CCC(NC[C@H](O)COc4ccc(O)cc4)CC3)cc2)cc1OC [Example 11, N-(3,4-Dimethoxy-phenyl)-4-{4-[(2S)-2-hydroxy-3-(4-hydroxy-phenoxy)-propylamino]-piperidin-1-yl}-benzenesulfonamide]",0.33,(0.83),–,–,101 to 106 °C,–,–
"CCCCNS(=O)(=O)c1ccc(N2CCC(NC[C@H](O)COc3cccc4[nH]c(=O)[nH]c34)CC2)cc1 [Example 12, N-Butyl-4-{4-[(2S)-2-hydroxy-3-(2-oxo-2,3-dihydro-1H-benzoimidazol-4-yloxy)-propylamino]-piperidin-1-yl}-benzenesulfonamide]",0.01,(1),–,–,69 to 75 °C,–,–
"CCCCNS(=O)(=O)c1ccc(N2CCC(NC[C@H](O)COc3cccc4[nH]c5ccccc5c34)CC2)cc1 [Example 13, N-Butyl-4-{4-[(2S)-3-(9H-carbazol-4-yloxy)-2-hydroxy-propylamino]-piperidin-1-yl}-benzenesulfonamide]",0.05,(0.7),–,–,166 to 179 °C,–,–
"CCCCNS(=O)(=O)c1ccc(N2CCC(NC[C@H](O)c3ccc(O)c(NS(C)(=O)=O)c3)CC2)cc1 [Example 14, N-Butyl-4-{4-[(2R)-2-hydroxy-2-(4-hydroxy-3-methanesulfonylamino-phenyl)-ethylamino]-piperidin-1-yl}-benzenesulfonamide]",0.001,(1.3),0.64,(1),71 to 75 °C,0.17,(0.53)
"CC(C)OC(=O)C1CCCN1S(=O)(=O)c1ccc(N2CCC(NCC(O)c3ccc(O)c(NS(C)(=O)=O)c3)CC2)cc1 (centres unmarked) [Example 15, 1-(4-{4-[2-Hydroxy-2-(4-hydroxy-3-methanesulfonylamino-phenyl)-ethylamino]-piperidin-1-yl}-benzenesulfonyl)-pyrrolidine-2-carboxylic Acid Isopropyl Ester]",0.001,(1),13,(0.23),52 to 58 °C,0.16,(0.37)
"CC(C)OC(=O)C1CCCN1S(=O)(=O)c1ccc(N2CCC(NCC(O)COc3cccc4[nH]c(=O)[nH]c34)CC2)cc1 (centres unmarked) [Example 16, 1-(4-{4-[2-Hydroxy-3-(2-oxo-2,3-dihydro-1H-benzoimidazol-4-yloxy)-propylamino]-piperidin-1-yl}-benzenesulfonyl)-pyrrolidine-2-carboxylic Acid Isopropyl Ester]",0.003,(0.86),–,–,74 to 83 °C,–,–
"CNC(=O)C1CCCN1S(=O)(=O)c1ccc(N2CCC(NC[C@H](O)COc3cccc4[nH]c(=O)[nH]c34)CC2)cc1 (stereo partly drawn) [Example 17, 1-(4-{4-[(2S)-2-Hydroxy-3-(2-oxo-2,3-dihydro-1H-benzoimidazol-4-yloxy)-propylamino]-piperidin-1-yl}-benzenesulfonyl)-pyrrolidine-2-carboxylic Acid Methylamide]",0.028,(0.81),–,–,36 to 39 °C,–,–
"CCCCN(CC(=O)OCc1ccccc1)S(=O)(=O)c1ccc(N2CCC(NC[C@H](O)c3ccc(O)c(NS(C)(=O)=O)c3)CC2)cc1 [Example 19, [Butyl-(4-{4-[(2R)-2-hydroxy-2-(4-hydroxy-3-methanesulfonylamino-phenyl)-ethylamino]-piperidin-1-yl}-benzenesulfonyl)-amino]-acetic Acid Benzyl Ester]",0.007,(1),0.79,(0.54),59 to 64 °C,–,(0.2)
"CS(=O)(=O)Nc1cc([C@@H](O)CNC2CCN(c3ccc(S(=O)(=O)N4CCC[C@@H]4C(=O)OCc4ccccc4)cc3)CC2)ccc1O [Example 21, (2R)-1-(4-{4-[(2R)-2-Hydroxy-2-(4-hydroxy-3-methanesulfonylamino-phenyl)-ethylamino]-piperidin-1-yl}-benzenesulfonyl)-pyrrolidine-2-carboxylic Acid Benzyl Ester]",0.001,(1),0.06,(0.88),62 to 69 °C,0.64,(0.82)
"CS(=O)(=O)Nc1cc([C@@H](O)CNC2CCN(c3ccc(S(=O)(=O)N4CCC[C@H]4C(=O)OCc4ccccc4)cc3)CC2)ccc1O [Example 22, (2S)-1-(4-{4-[(2R)-2-Hydroxy-2-(4-hydroxy-3-methanesulfonylamino-phenyl)-ethylamino]-piperidin-1-yl}-benzenesulfonyl)-pyrrolidine-2-carboxylic Acid Benzyl Ester]",0.002,(1),0.2,(1.08),65 to 71 °C,0.04,(0.63)
"CCCCN(CC(=O)OCC)S(=O)(=O)c1ccc(N2CCC(NC[C@H](O)c3ccc(O)c(NS(C)(=O)=O)c3)CC2)cc1 [Example 23, [Butyl-(4-{4-[(2R)-2-hydroxy-2-(4-hydroxy-3-methanesulfonylamino-phenyl)-ethylamino]-piperidin-1-yl}-benzenesulfonyl)-amino]-acetic Acid Ethyl Ester]",0.016,(1),1.32,(0.68),94 to 95 °C,1.67,(0.89)
"CS(=O)(=O)Nc1cc([C@@H](O)CNC2CCN(c3ccc(S(=O)(=O)NCCO)cc3)CC2)ccc1O [Example 24, N-(2-Hydroxyethyl)-4-{4-[(2R)-2-hydroxy-2-(4-hydroxy-3-methanesulfonylamino-phenyl)-ethylamino]-piperidin-1-yl)-benzenesulfonamide]",0.033,(0.88),1,(0.35),78 to 81 °C,1,(0.68)
"Cc1ccc(S(=O)(=O)c2ccc(N3CCC(NCC(O)c4ccc(O)c(NS(C)(=O)=O)c4)CC3)cc2)cc1 (centres unmarked) [Example 45, N-[2-Hydroxy-5-(1-hydroxy-2-{1-[4-(toluene-4-sulfonyl)-phenyl]-piperidin-4-ylamino}-ethyl)-phenyl]-methanesulfonamide]",0.001,(1),0.02,(0.74),115 to 118 °C,0.7,(0.63)
"Cc1ccc(S(=O)(=O)c2ccc(N3CCC(NC[C@H](O)COc4cccc5[nH]c(=O)[nH]c45)CC3)cc2)cc1 [Example 46, 4-((2S)-2-Hydroxy-3-{1-[4-(toluene-4-sulfonyl)-phenyl]-piperidin-4-ylamino}-propoxy)-1,3-dihydro-benzoimidazol-2-one]",0.009,(1.1),–,–,130 to 132 °C,–,–
"O=C1CN(S(=O)(=O)c2ccc(N3CCC(NC[C@H](O)COc4cccc5[nH]c(=O)[nH]c45)CC3)cc2)C(=O)N1 [Example 49, 1-(4-{4-[(2S)-2-Hydroxy-3-(2-oxo-2,3-dihydro-1H-benzoimidazol-4-yloxy)-propylamino]-piperidin-1-yl}-benzenesulfonyl)-imidazolidine-2,4-dione]",0.009,(0.96),–,–,230 °C (dec.),–,–
